The source of these data is US11634391B2, “Compounds which are inhibitors of Notum” (UCL BUSINESS LTD, priority 2018, dated 2023).

The IC50 is the midpoint of a concentration-inhibition curve. Low readings indicate inhibition by little substance, high ones a need for much substance.

Structures can show the parent of a compound that is named as a salt.

notum carboxyesterase enzyme, sequence (Q6P988 20-496): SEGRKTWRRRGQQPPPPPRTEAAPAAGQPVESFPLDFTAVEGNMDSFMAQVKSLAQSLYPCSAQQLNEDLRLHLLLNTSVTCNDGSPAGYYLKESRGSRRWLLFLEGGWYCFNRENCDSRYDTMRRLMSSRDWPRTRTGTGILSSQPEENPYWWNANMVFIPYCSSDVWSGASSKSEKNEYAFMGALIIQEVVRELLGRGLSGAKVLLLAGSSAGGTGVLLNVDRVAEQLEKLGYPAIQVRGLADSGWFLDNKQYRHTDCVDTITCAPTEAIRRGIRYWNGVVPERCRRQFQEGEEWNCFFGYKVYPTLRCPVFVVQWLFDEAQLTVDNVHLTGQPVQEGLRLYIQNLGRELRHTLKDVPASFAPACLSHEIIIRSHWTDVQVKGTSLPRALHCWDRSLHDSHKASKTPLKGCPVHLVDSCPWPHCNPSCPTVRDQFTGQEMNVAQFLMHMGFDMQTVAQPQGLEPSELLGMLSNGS

In the test the target is notum carboxyesterase enzyme (Homo sapiens (Human), UniProt Q6P988). Description: Biochemical Notum Enzymatic Activity Assay (OPTS substrate, fluorescence). Particulars: 2 μM OPTS solution, 2.38 nM notum enzyme solution, 1 hour incubation at room temperature, fluorescence ex 485 nm / em 520 nm; n≥2. An excerpt:
Plate layout and measured fluorescence values were input into Dotmatics Studies data management tool.
Regarding `Clc1ccc(-n2cnnn2)cc1` [Compound 216, 1-(4-chlorophenyl)tetrazole], the half-maximal inhibitory concentration (IC50) was 26.9 µM.

For the compound `N#CCn1nc(-c2ccc(Cl)c(C(F)(F)F)c2Cl)oc1=O` [Compound 244, 2-(5-(2,4-dichloro-3-(trifluoromethyl)phenyl)-2-oxo-1,3,4-oxadiazol-3(2H)-yl)acetonitrile], half-maximal inhibition (IC50) was put at 0.411 µM.

For `Nc1nnc(-c2ccc(Cl)cc2)s1` [Compound 168, 5-(4-chlorophenyl)-1,3,4-thiadiazol-2-amine], the 50% inhibitory concentration (IC50) was 8.29 µM. Compared with the last compound, the IC50 is about 20-fold higher.

Compound `OCc1cn(-c2ccccc2Cl)nn1` [Compound 20, (1-(2-chlorophenyl)-1H-1,2,3-triazol-4-yl)methanol] registered an IC50 of 39.1 µM.

Regarding `Fc1cc(F)cc(-c2cc[nH]n2)c1` [Compound 56, 3-(3,5-difluorophenyl)-1H-pyrazole], half-maximal inhibition (IC50) was put at 23 µM. Against the preceding compound, the IC50 is about 1.7-fold lower.

In turn, `FC(F)(F)c1cc(-c2c[nH]nn2)ccc1Cl` [Compound 50, 4-(4-chloro-3-(trifluoromethyl)phenyl)-1H-1,2,3-triazole] yielded an IC50 of 0.0194 µM.

`CN(C)c1nnc(-c2ccc(Cl)c(C(F)(F)F)c2Cl)o1` [Compound 247, 5-(2,4-dichloro-3-(trifluoromethyl)phenyl)-N,N-dimethyl-1,3,4-oxadiazol-2-amine] had an IC50 of 0.439 µM. This IC50 lies about 23-fold higher than the previous one.

`Cc1cn(-c2ccc(Cl)c(C(F)(F)F)c2Cl)nn1` [Compound 301, 1-(2,4-dichloro-3-(trifluoromethyl)phenyl)-4-methyl-1H-1,2,3-triazole] registered an IC50 of 0.108 µM.

In turn, `Nc1nc(-c2ccccc2)no1` [Compound 141, 3-phenyl-1,2,4-oxadiazol-5-amine] gave an IC50 of 70.6 µM.

In turn, `Cc1cc(C)cc(-n2cnnn2)c1` [Compound 194, 1-(3,5-dimethylphenyl)tetrazole] came in with a 50% inhibitory concentration (IC50) of 3.22 µM.

The compound `Fc1ccc(-c2cc[nH]n2)cc1F` [Compound 53, 3-(3,4-difluorophenyl)-1H-pyrazole] gave a half-maximal inhibitory concentration (IC50) of 16.7 µM.

For `N#CNc1nnc(-c2ccc(Cl)c(C(F)(F)F)c2Cl)o1` [Compound 246, N-(5-(2,4-dichloro-3-(trifluoromethyl)phenyl)-1,3,4-oxadiazol-2-yl)cyanamide, ammonia salt], 0.0073 µM corresponded to half-maximal inhibition (IC50).

With `OCc1cn(-c2cccc(Cl)c2Cl)nn1` [Compound 7, (1-(2,3-dichlorophenyl)-1H-1,2,3-triazol-4-yl)methanol], half-maximal inhibition (IC50) was put at 6.77 µM.

`OCc1nnc(-c2ccc(Cl)c(C(F)(F)F)c2)o1` [Compound 296, (5-(4-chloro-3-(trifluoromethyl)phenyl)-1,3,4-oxadiazol-2-yl)methanol]: the IC50 amounted to 0.14 µM.

For `Cc1ccc(-c2nnc(O)o2)cc1OC(F)(F)F` [Compound 79, 5-(4-methyl-3-(trifluoromethoxy)phenyl)-1,3,4-oxadiazol-2-ol], the IC50 came to 0.036 µM. Compared with the last compound, the IC50 is about 3.9-fold lower.

Compound `Nc1nnc(-c2ccccc2)o1` [Compound 137, 5-phenyl-1,3,4-oxadiazol-2-amine] displayed an IC50 of 33 µM.

As to `OCc1cn(Cc2ccc(Cl)cc2)nn1` [Compound 162, (1-(4-chlorobenzyl)-1H-1,2,3-triazol-4-yl)methanol], the IC50 was determined as 68.5 µM.

Take `Cc1nnc(-c2ccc(Cl)c(C(F)(F)F)c2Cl)o1` [Compound 299, 2-(2,4-dichloro-3-(trifluoromethyl)phenyl)-5-methyl-1,3,4-oxadiazole]: the half-inhibitory concentration (IC50) came out at 0.027 µM.

Compound `OCc1cn(-c2ccc3c(c2)OCO3)nn1` [Compound 4, (1-(benzo[d][1,3]dioxol-5-yl)-1H-1,2,3-triazol-4-yl)methanol] yielded a half-inhibitory concentration (IC50) of 37.3 µM.

Consider `OCc1cn(-c2ccc(Cl)c(OCc3ccccc3)c2)nn1` [Compound 17, (1-(3-(benzyloxy)-4-chlorophenyl)-1H-1,2,3-triazol-4-yl)methanol], for which 5.69 µM corresponded to half-maximal inhibition (IC50). This IC50 lies about 6.6-fold lower than the previous one.

`FC(F)(F)c1c(Cl)cnc(-n2ccnn2)c1Cl` [Compound 307, 3,5-dichloro-2-(triazol-1-yl)-4-(trifluoromethyl)pyridine] gave a concentration for half-maximal inhibition (IC50) of 0.0081 µM. Compared with the last compound, the IC50 is about 700-fold lower.

For `FC(F)(F)c1ccc(-c2nnco2)cc1C1COC1` [Compound 181, 2-[3-(oxetan-3-yl)-4-(trifluoromethyl)phenyl]-1,3,4-oxadiazole], the concentration for half-maximal inhibition (IC50) is 0.257 µM.

`OCc1cn(-c2ccc(Cl)c(Cl)c2)nn1` [Compound 19, (1-(3,4-dichlorophenyl)-1H-1,2,3-triazol-4-yl)methanol] returned a half-inhibitory concentration (IC50) of 0.484 µM. This IC50 is about 1.9-fold higher than that of the compound before.

`OCc1cn(-c2ccc3ccccc3c2)nn1` [Compound 3, (1-(naphthalen-2-yl)-1H-1,2,3-triazol-4-yl)methanol] showed an IC50 of 1.28 µM. This IC50 lies about 2.6-fold higher than the previous one.

As to `NCc1nnc(-c2ccccc2)o1` [Compound 140, (5-phenyl-1,3,4-oxadiazol-2-yl)methanamine], it took 2.94 µM to reach half-maximal inhibition (IC50).

In the case of `Clc1ccc(-c2ccno2)cc1` [Compound 150, 5-(4-chlorophenyl)isoxazole], the 50% inhibitory concentration (IC50) worked out at 1.1 µM.

`FC(F)(F)c1cc(-c2nnco2)cc(C2COC2)c1` [Compound 188, 2-[3-(oxetan-3-yl)-5-(trifluoromethyl)phenyl]-1,3,4-oxadiazole] had a 50% inhibitory concentration (IC50) of 24.7 µM.

In turn, `FC(F)(F)c1cc(-c2nnco2)ccn1` [Compound 222, 2-[2-(trifluoromethyl)-4-pyridyl]-1,3,4-oxadiazole] yielded an IC50 of 8.05 µM.

Turning to `FC(F)(F)c1cc(-c2cc[nH]n2)ccc1Cl` [Compound 51, 3-(4-chloro-3-(trifluoromethyl)phenyl)-1H-pyrazole], the 50% inhibitory concentration (IC50) was determined as 1.36 µM.

Compound `COc1cc(-n2cc(CO)nn2)ccc1Cl` [Compound 30, (1-(4-chloro-3-methoxyphenyl)-1H-1,2,3-triazol-4-yl)methanol] returned a half-inhibitory concentration (IC50) of 6.61 µM. Compared with the last compound, the IC50 is about 4.9-fold higher.

On to `OCc1cn(-c2ccc(Cl)c(Cl)c2)cn1` [Compound 127, [1-(3,4-dichlorophenyl)imidazol-4-yl]methanol], for which the IC50 came out at 5.95 µM.

Take `Cn1nc(-c2ccc(Cl)cc2)oc1=O` [Compound 229, 5-(4-chlorophenyl)-3-methyl-1,3,4-oxadiazol-2(3H)-one]: the IC50 worked out at 26.1 µM.

Compound `CCOc1nnc(-c2ccc(Cl)c(C(F)(F)F)c2Cl)o1` [Compound 242, 2-(2,4-dichloro-3-(trifluoromethyl)phenyl)-5-ethoxy-1,3,4-oxadiazole] gave an IC50 of 0.0043 µM.

Regarding `CC(=O)NCc1cn(-c2ccc(Cl)c(Cl)c2)nn1` [Compound 42, N-((1-(3,4-dichlorophenyl)-1H-1,2,3-triazol-4-yl)methyl)acetamide], the IC50 came out at 19.5 µM.

`CC(C)c1ccc(-n2cnnn2)cc1` [Compound 217, 1-(4-isopropylphenyl)tetrazole] gave an IC50 of 21.4 µM.

Take `Cc1ccc(-n2cc(CO)nn2)cc1C` [Compound 5, (1-(3,4-dimethylphenyl)-1H-1,2,3-triazol-4-yl)methanol]: the IC50 came to 0.81 µM.

Compound `OCCCc1cn(-c2ccc(Cl)c(C(F)(F)F)c2)nn1` [Compound 302, 3-[1-[4-chloro-3-(trifluoromethyl)phenyl]triazol-4-yl]propan-1-ol] gave an IC50 of 7.51 µM.

Turning to `ClCc1nnc(-c2ccc(Cl)c(Cl)c2)o1` [Compound 125, 2-(chloromethyl)-5-(3,4-dichlorophenyl)-1,3,4-oxadiazole], the IC50 worked out at 61 µM.

`OCc1cn(-c2ccc(Cl)c(C(F)(F)F)c2Cl)nn1` [Compound 277, [1-[2,4-dichloro-3-(trifluoromethyl)phenyl]triazol-4-yl]methanol] showed a half-maximal inhibitory concentration (IC50) of 0.0096 µM.
